Reference: patent publication US11214803B2, “Modulators of YAP1 expression” (Ionis Pharmaceuticals, Inc., priority 2019, dated 2022)
Strand notation (5' to 3'): a small letter for the sugar, then the base; units joined by * are phosphorothioate-linked, units joined directly phosphodiester-linked; [ ] holds rarer units or linkages, { } end groups; capitals alone tell only the bases. k = constrained ethyl (cEt); [5mC] = 5-methylcytosine; d = 2'-deoxy (DNA)

System: Yap1 mRNA
Assay: Dose-dependent inhibition of human Yap1 in A-431 cells (Example 8, 10,000 cells per well, RTS4814)
Type: cell-based
Conditions: free uptake, approximately 48 hours, RTS4814; for Yap1 mRNA, % UTC: A-431 cells, 10,000 cells per well; for IC50: A-431 cells, linear regression on log/linear plot
Protocol: Modified oligonucleotides described in the studies above were tested at various doses in A-431 cells. Cultured A-431 cells at a density of 10,000 cells per well were treated using free uptake with modified oligonucleotides diluted to concentrations described in the tables below. After approximately 48 hours, Yap1 mRNA levels were measured as previously described using the Human Yap1 primer-probe set RTS4814. Yap1 mRNA levels were normalized to total RNA content, as measured by RIBOGREEN®. Results are presented in the tables below as percent control of the amount of Yap1 mRNA relative to untreated control cells (% UTC). IC50s were calculated using a linear regression on a log/linear plot of the data in excel.

| Substance | Yap1 mRNA, % UTC (31.3 nM) [% UTC] | Yap1 mRNA, % UTC (125.0 nM) [% UTC] | Yap1 mRNA, % UTC (500.0 nM) [% UTC] | Yap1 mRNA, % UTC (2000.00 nM) [% UTC] | IC50 [µM] |
| --- | --- | --- | --- | --- | --- |
| 1076549 (kG*kT*kG*d[5mC]*dA*dA*dA*dA*dT*dA*d[5mC]*d[5mC]*dT*kT*kT*kG; antisense) [compound 1076549] | 53 | 24 | 10 | 6 | < 0.02 |
| 1076427 (k[5mC]*kA*kA*dA*dT*dT*dT*dA*d[5mC]*dT*dG*dA*dT*k[5mC]*kT*k[5mC]; antisense) [compound 1076427] | 75 | 30 | 9 | 4 | 0.1 |
| 1074565 (DNA kA*k[5mC]*kT*dG*dA*dA*dT*dT*d[5mC]*d[5mC]*dA*dA*dT*k[5mC]*kG*kA; antisense) [compound 1074565] | 47 | 20 | 9 | 6 | < 0.02 |
| 1074443 (kT*k[5mC]*kA*dG*dA*d[5mC]*d[5mC]*dA*dG*dT*dA*dA*dA*kT*k[5mC]*kA; antisense) [compound 1074443] | 69 | 35 | 14 | 8 | 0.1 |
| 1074753 (kT*kA*k[5mC]*dA*dT*dT*dA*dG*dG*dA*dA*d[5mC]*dA*kA*kG*kG; antisense) [compound 1074753] | 42 | 10 | 6 | 4 | < 0.02 |
| 1074274 (antisense kG*kT*kT*d[5mC]*dT*dT*dA*dT*dG*dG*dT*dT*dT*kA*kT*kA) [compound 1074274] | 42 | 14 | 7 | 5 | < 0.02 |
| 1076000 (k[5mC]*k[5mC]*kT*dA*dA*dT*dA*dT*dG*dA*d[5mC]*dT*d[5mC]*k[5mC]*kT*kT; antisense) [compound 1076000] | 71 | 31 | 10 | 5 | 0.1 |
| 1074850 (kT*kT*kG*dT*dT*dA*dT*dG*dA*dT*dA*dG*dG*k[5mC]*kA*k[5mC]; antisense) [compound 1074850] | 63 | 20 | 7 | 5 | 0.04 |
| 1075458 (antisense k[5mC]*k[5mC]*kA*d[5mC]*dA*dA*dT*dA*dT*dA*d[5mC]*dT*d[5mC]*k[5mC]*kA*kA) [compound 1075458] | 74 | 43 | 17 | 6 | 0.1 |
| 1075784 (kA*kT*kT*dT*dT*dA*dT*dA*dG*dG*dG*d[5mC]*d[5mC]*kA*kT*kT; antisense) [compound 1075784] | 54 | 18 | 5 | 3 | < 0.02 |
| 1076516 (k[5mC]*kA*kT*dA*dA*dA*d[5mC]*dA*dT*dG*dA*dG*dT*kG*kG*kT; antisense) [compound 1076516] | 64 | 39 | 18 | 13 | 0.1 |
| 1076294 (kT*kA*kT*dA*dT*dT*dA*dG*dT*dG*d[5mC]*d[5mC]*d[5mC]*k[5mC]*k[5mC]*kT; antisense) [compound 1076294] | 76 | 50 | 21 | 11 | 0.1 |
| 1076458 (k[5mC]*kT*kT*dA*dA*dT*dT*dA*dG*d[5mC]*d[5mC]*dT*d[5mC]*kA*kG*kT; antisense) [compound 1076458] | 88 | 52 | 23 | 10 | 0.2 |
| 1075968 (kT*kA*kT*dT*dT*dA*dA*dG*d[5mC]*d[5mC]*dA*dA*dA*k[5mC]*k[5mC]*kG; antisense) [compound 1075968] | 74 | 37 | 11 | 5 | 0.1 |
| 1075744 (kT*kT*k[5mC]*dG*dG*dG*dT*dT*dA*dG*d[5mC]*dA*dG*kA*k[5mC]*kT; antisense) [compound 1075744] | 55 | 22 | 9 | 7 | < 0.02 |
| 1076552 (kA*kT*kG*dT*dA*dT*dA*dA*dA*dT*dA*d[5mC]*d[5mC]*kA*kG*kG; antisense) [compound 1076552] | 73 | 40 | 17 | 12 | 0.1 |
| 1075081 (antisense kG*kA*kT*dT*dA*d[5mC]*dA*dA*dA*dG*dA*d[5mC]*dA*kG*k[5mC]*k[5mC]) [compound 1075081] | 76 | 50 | 22 | 9 | 0.1 |
| 1074566 (DNA CACTGAATTCCAATCG; 3-10-3 cEt gapmer, chemistry not fully specified) [compound 1074566] | 41 | 12 | 5 | 3 | < 0.02 |
| 1074630 (antisense kA*kG*kA*dG*dA*dT*dT*dT*dT*dA*dT*dG*d[5mC]*k[5mC]*kT*kG) [compound 1074630] | 57 | 23 | 10 | 6 | < 0.02 |
| 1074627 (DNA k[5mC]*k[5mC]*kT*dG*dT*dT*dA*dT*dG*dA*dA*d[5mC]*d[5mC]*k[5mC]*kT*kT; antisense) [compound 1074627] | 17 | 5 | 3 | 3 | < 0.02 |
| 1075778 (k[5mC]*kA*kT*dT*dT*dA*dT*dA*d[5mC]*d[5mC]*dA*dG*dG*k[5mC]*kA*k[5mC]; antisense) [compound 1075778] | 56 | 29 | 10 | 5 | 0.03 |
| 1076386 (antisense kA*kG*kT*dT*dA*dT*dA*dA*d[5mC]*dA*dG*dT*dG*kT*kA*kA) [compound 1076386] | 61 | 30 | 11 | 5 | 0.04 |
| 1074313 (antisense kT*kG*kA*dT*dA*dT*dT*d[5mC]*d[5mC]*dG*d[5mC]*dA*dT*kT*kG*k[5mC]) [compound 1074313] | 56 | 21 | 9 | 5 | < 0.02 |
| 1075146 (kG*kT*kA*dT*dT*dA*dA*dG*dG*dG*dA*dT*dT*kT*kT*k[5mC]; antisense) [compound 1075146] | 67 | 38 | 16 | 8 | 0.1 |
| 1074563 (DNA kT*kG*kA*dA*dT*dT*d[5mC]*d[5mC]*dA*dA*dT*d[5mC]*dG*kA*kG*kA; antisense) [compound 1074563] | 80 | 31 | 7 | 5 | 0.1 |
| 1075078 (antisense k[5mC]*kA*kA*d[5mC]*dT*dA*dT*dA*d[5mC]*dG*dG*dT*d[5mC]*k[5mC]*kA*kT) [compound 1075078] | 65 | 32 | 12 | 4 | 0.1 |
| 1076393 (antisense k[5mC]*kT*kT*dT*dA*d[5mC]*dT*dT*dA*d[5mC]*dT*dG*dG*kT*kG*kG) [compound 1076393] | 54 | 20 | 8 | 5 | < 0.02 |
| 1074628 (DNA kG*k[5mC]*k[5mC]*dT*dG*dT*dT*dA*dT*dG*dA*dA*d[5mC]*k[5mC]*k[5mC]*kT) [compound 1074628] | 29 | 13 | 7 | 6 | < 0.02 |
| 1074250 (antisense k[5mC]*kT*kG*dA*dT*d[5mC]*dG*dA*dT*dG*dT*dG*dA*kT*kT*kT) [compound 1074250] | 67 | 35 | 15 | 9 | 0.1 |
